Measured values published in patent US20160281089A1, “PREVENTION OF VIRAL INFECTIVITY” (priority 2005, published 2016).

How the values were obtained:
SFFV [1] = test: Survival of SFFV-infected DBA/2 mice treated with ODN M at times 0 and 1 hour; assay type: in vivo; conditions: ODN M 1 mg at 0 and 1 hour, i.p.
Procedure: We also monitored survival of SFFV-infected mice treated with and without ODN M at times 0 and 1 hour, in this case DBA/2 mice and by i.p. route (FIG. 11b).
Five mice each received 300 μl SFFV (1:100) i.p. supplemented with or without ODN M and 1 h later a second dose of ODN M (1 mg each). Survival was monitored until day 68. The spleen weights at death are indicated as numbers on the graph.

SFFV [2] = test: NIH 3T3 cells infected with SFFV for 2 h and then treated; assay type: cell-based; conditions: treatment 2 h after infection, three concentrations, no carrier, three days post-infection
Procedure: In the next experiment NIH 3T3 cells were infected with SFFV for 2 h and then treated with three different concentrations each of ODN M, asPPT, and three different siRNAs.
c. NIH-3T3 cells were infected with SFFV for 2 hours and then treated with three decreasing concentrations of ODN M, asPPT and three different PPT-specific siRNAs. RNA was isolated from supernatants three days post-infection and analyzed by real time RT-PCR.

[3] = molecular target: T1, recombinant M-MuLV RT/RNase H (Moloney murine leukemia virus, UniProt P03355); test: In vitro cleavage of synthetic SFFV PPT-RNA with recombinant M-MuLV RT/RNase H; assay type: biochemical; conditions: 5'-end-labelled RNA
T1 construct: The 80 kDa RT/RNase H of M-MuLV is a monomer
Excerpt: To test, whether ODN M would have similar effects as ODN A, we tested the ability of ODN M to induce cleavage of SFFV RNA in the presence of the recombinant M-MuLV RT/RNase H. We used synthetic 5′-end-labelled RNA, which contains the extended PPT of SFFV and sequences of the viral genome dose to the PPT. […] M-MuLV RT/RNase H induced ODN M-mediated cleavage in a dose-dependent manner (FIG. 8b left). The cleavage induced by the various ODNs leads to degradation of the SFFV PPT-RNA in vitro as shown (FIG. 8b right). […] We concluded that SFFV could serve as model for HIV.
a. 5′-labeled synthetic PPT-RNAs of SFFV (left) and HIV-1 (right) were annealed and cleaved with recombinant M-MuLV or HIV-1 RT/RNase H in the absence or presence of ODN M or ODN A. Cleavage products were analyzed by 8M urea-containing PAGE (6%). Filled arrowheads correspond to the specific RT/RNase H cleavage sites, open arrowheads to additional cleavage sites. RNase T1-digested RNA (RNase T1) served as marker. M indicates the Decade Marker.
b. Titration of recombinant M-MuLV RT/RNase H in the presence of ODN M (50 nM) and 5′-labeled SFFV-PPT-RNA. […] 5′-labeled SFFV-PPT-RNA or control RNA without PPT (Con.) were hybridized with the ODNs and treated with and without MuLV RT/RNase H for in vitro cleavage as indicated and analyzed by 8M urea-containing PAGE (10%, right).

SFFV virions = test: Permeabilized cell-free SFFV virions incubated with ODNs, undigested RNA by real-time PCR; assay type: biochemical; conditions: 5 μM ODN, compared to control ODNs or asPPT
Procedure: In order to further characterize antiviral effects of ODNs, we tested ODN M, asPPT and structural analogs of ODN M in SFFV virions, which contain endogenous RT/RNase H and have an appropriate secondary structure of the RNA. Permeabilized virions were incubated with ODNs, viral RNA was then purified, reverse transcribed and the amount of undigested RNA was quantified by real-time PCR using a set of primers harboring the PPT region of the SFFV genome. […] We observed differences in the antiviral activities between various ODNs. […] Thus, the presence as well as the sequences of both strands of the ODN contributed to the antiviral effect. We noticed previously that the second arm of the ODN is more important intracellularly than in vitro.
a. Cell-free SFFV virions (1×10^3 FFU in 20 μl) were permeabilized and incubated with the indicated ODNs (5 μM). RNA was extracted three days post-treatment and analyzed by quantitative real-time RT-PCR shown as bars (top) and RT-PCR shown as amplifications products on a 1.5% agarose gel (bottom).

RT/RNaseH = RT/RNaseH (Human immunodeficiency virus type 1 group M subtype B, UniProt P04585); conditions: high concentrations; previously shown (ref. 12); cited from earlier work
FUGW virus = test: Intravaginal treatment of FUGW virus with ODN A, lavage, real-time PCR; assay type: in vivo, C57BL/6 mice; conditions: 25 μM ODN, 4 h in the vagina
Excerpt: In order to analyse the efficiency of the ODN A in the vagina, we used a recombinant retrovirus vector (FUGW) and placed the virus with and without ODN A into the vagina. We recover the virus by lavage and tested the RNA copies by real-time PCR. […] Two different virus concentration were used. The effect can be approved due by adaptation to mucosal condition of the vagina.
The FUGW virus was used, which is a recombinant retrovirus on the basis of HIV but with safety properties. It contains a PPT identical to HIV. The virus was prepared as described (Lois C., Hong E. J., Pease S., Brown E. J. and Baltimore D. (2002). “Germline Transmission and Tissue-Specific Expression of Transgenes Delivered by Lentiviral Vectors”, Science 295, 868-872).
The incubation was followed by a lavage of the vagina. Then lavage samples from the vagina were collected for RNA extraction using QIAamp viral RNA kit. RNA were eluted in 30 μl elution buffer. For reverse transcription, 2 μl RNA were used in 12.5 μl volume and 3 μl of the cDNA were used for real time PCR. Virus reduction is dependent on the ratio of ODN A to virus titer and the reduction is 2 fold for 10^4 IU.

Sequence	survival time (SFFV [1])	number of treated mice with prolonged survival (SFFV [1]; DBA/2 mice)	survival of the surviving mice (SFFV [1]; untreated mice died after 20 to 30 days)	antiviral effect, SFFV RNA in supernatants (SFFV [2])	cleavage of synthetic SFFV PPT-RNA [3]	amount of intact SFFV RNA in virions (antiviral activity) (SFFV virions)	concentration at which ODN inhibits the RT/RNaseH activity in vitro (RT/RNaseH)	reduction of virus RNA copies / titer recovered by lavage (FUGW virus)	reduction of virus RNA copies / titer recovered by lavage (FUGW virus; listed as ODNA A)	virus reduction (FUGW virus; 10^4 IU FUGW-virus)
TCTTTTTGGGGGGTTTGTTTGTTTTTTCTTTCATTCCCCCCTTTTTCT (chemistry not given here) [ODN M, 22-mer antisense and 22-mer second strand connected by T4, targeted to extended PPT of SFFV]	almost doubled	Two out of five	more than 60 days	slightly superior to the asPPT but much stronger compared to siRNA	cleaved	strongest effect				
TTTTCTTTTGGGGGGTTTGGTTGGGTTTTCCCTTCCAGTCCCCCCTTTTCTTTT (phosphorothioate linkages, further chemistry not given here) [ODN A, 25 mer antisense and 25 mer passenger strand connected by T4, phosphorothioated at each end and in linker, targeted to extended PPT of HIV-1]							≥ 1 µM	twofold	factor of two	2 fold
